Experimental findings from patent publication US20210100872A1, “Pharmacological Formulation Comprising Cyclo (HIS-PRO) As Effective Ingredient For Preventing Or Treating Diabetes Mellitus” (Novmetapharma Co., Ltd., priority 2017, published 2021) are described below.

Common to all, as to format: in vivo, human
Experiment [1] has as its system patients with type 2 diabetes mellitus. Put plainly: Change in concentration of HbA1c, 12-week clinical trial. Conditions: for concentration of HbA1c, Average / concentration of HbA1c, Change Value, Average: capsule once a day; for concentration of HbA1c, Change Value, Average: From Week 0 to Week 12. The method, then:
(§1) We conducted a clinical trial designed as randomized, placebo-controlled, double-blind, and two-way crossover on drug interaction in patients with type 2 diabetes mellitus. The clinical trial was conducted for 149 patients over a total of 16 weeks, in which the screening period was 2 weeks, the treatment period was 12 weeks, and the period of the evaluation of safety and follow-up was 2 weeks.
(§2) In the screening stage, 64 subjects were selected from 149 participants, and the subjects who met the selection criteria were fasted for 2 hours before and after breakfast each day and subjected to a 2-week evaluation process of measuring and recording blood glucose levels. In the treatment stage, capsules containing placebo or CHP with different doses were randomly administered to 64 selected subjects once a day for 12 consecutive weeks.
(§3) In the above experiment, a capsule containing CHP (cyclo-hispro) with a different dose or a placebo corresponding thereto was used, and each subject received a two-week dose (18 capsules =14 +4) at one visit and was instructed to take 1 capsule before bedtime every day. In this case, the anti-diabetic drugs and other prescribed drugs currently being used were continuously taken. Each subject was assigned at the same rate as follows and administered with a placebo or a compound with a different dose, respectively. • Administration Group A: 3 mg of CHP+23 mg of zinc—16 subjects • Administration Group B: 9 mg of CHP+23 mg of zinc—16 subjects • Administration Group C: 15 mg of CHP+23 mg of zinc—16 subjects • Administration Group D: placebo (control)—16 subjects
The present inventors observed the change in concentration of HbA1c during the 12-week dosing period. Since the blood glucose level measured at one time point can change due to various factors, the change in glycated hemoglobin (HbA1c) was checked for the purpose of determining the pattern of long-term glycemic control, and the results are shown in Table 1 and FIG. 1.

Experiment [2] in a line: Change in body weight, 12-week clinical trial. The procedure:
as §1, §2
(§4) In the above experiment, a capsule containing CHP (cyclo-hispro) with a different dose or a placebo corresponding thereto was used, and each subject received a two-week dose (18 capsules =14 +4) at one visit and was instructed to take 1 capsule before bedtime every day. In this case, the anti-diabetic drugs and other prescribed drugs currently being used were continuously taken. […]

The nature of experiment [3]: Body mass index (BMI), 12-week clinical trial. Conditions: capsule once a day, From Week 0 to Week 12. The method, then:
as §1, §2, §3
The present inventors confirmed the improvement of body mass index (BMI) and the improvement of leptin resistance, and the results are shown in Tables 3 and 4.

The subject of experiment [4] is patients with type 2 diabetes mellitus. Kind of experiment: Plasma leptin level (leptin resistance), 12-week clinical trial. As to conditions: Administration Group A: 3 mg of CHP+23 mg of zinc, capsule once a day; From Week 0 to Week 12. The procedure: as §1, §2, §4
[5] abbreviates: Administration Group A: 3 mg of CHP+23 mg of zinc.
Where [6] appears, read: Administration Group B: 9 mg of CHP+23 mg of zinc.
The mark [7] stands for this setting: Administration Group C: 15 mg of CHP+23 mg of zinc.

Take `O=C1NC(Cc2c[nH]cn2)C(=O)N2CCCC12` (centres unmarked) [CHP, cyclo(his-pro)]: the “concentration of HbA1c, Average” value in experiment [1] (Administration Group A: 3 mg of CHP+23 mg of zinc, Baseline (Week 0)) was 8.25%; in experiment [1] (Administration Group B: 9 mg of CHP+23 mg of zinc, Baseline (Week 0)) it was 8.06%; in experiment [1] (Administration Group C: 15 mg of CHP+23 mg of zinc, Baseline (Week 0)), 8.49%; in experiment [1] (Administration Group C: 15 mg of CHP+23 mg of zinc, Week 12) it was 8.08%. In addition, the figures for the “concentration of HbA1c, Change Value, Average” value in experiment [1] (setting [5]), in experiment [1] (setting [6]) and in experiment [1] (setting [7]) were −0.21%, −0.17% and −0.43%, respectively. Moreover, the “level of HbA1c over time (FIG. 1)” value in experiment [1] (Administration Group C: 15 mg of CHP+23 mg of zinc, week 0 to week 12) is “reduced consistently until week 8, and then there was little change in the level of HbA1c between week 8 and week 12”. Also, the “body weight, Change Value, Average” value in experiment [2] (Administration Group A: 3 mg of CHP+23 mg of zinc, capsule once a day, From Week 0 to Week 12) was -0.73 kg. Further, in experiment [2] (all patient groups receiving CHP (3, 9, 15 mg+23 mg of zinc), 12 weeks), the “weight gain compared to the control” value is reported as “less than the control, or the body weight was reduced”. Moreover, the “body mass index (BMI), Change Value, Average” value in experiment [3] (setting [5]) was −0.27 kg/m^2; in experiment [3] (setting [6]), 0.16 kg/m^2; in experiment [3] (setting [7]) it was −0.28 kg/m^2. Further, the “plasma leptin level, Change Value, Average” value in experiment [4] came out at 0.59.
